Experimental findings from US20250115872A1, “GENERATION OF BROWN ADIPOCYTES FROM HUMAN PLURIPOTENT STEM CELLS” (The Brigham and Women's Hospital, Inc., priority 2022, published 2025) are described below.

For this experiment, the system named is iPSC-BAs. In words: Seahorse assay, oxygen consumption rate in iPSC-BAs. Format: cell-based, human. On the procedure: FIGS. 8A-D: FIG. 8A—RT-qPCR analysis for UCP1 on 40 day old replated iPSC-derived adipogenic cultures treated with 10 μM forskolin or vehicle control DMSO treatment for 4 hours. Relative gene expression is shown as relative change to undifferentiated iPSC. Mean±SD, n=5, t-test, p<0.01. FIG. 8B—Measurement of glycerol released in culture medium 40 day old replated iPSC-derived adipogenic cultures treated with 10 μM forskolin or vehicle control DMSO treatment for 4 hours. Glycerol amount normalized using total protein amount. Mean±SD, n=4, t-test, p≤0.01. FIG. 8C—Measurement of fluorescent intensity of thermosensitive ERthermAC dye in iPSC derived precursors on day 20 of differentiation and brown adipocytes after 40 days of replating in response to 10 μM forskolin or vehicle control DMSO. Each data point represents Mean±SD, n=3, t-test, p=0.0009. FIG. 8D—Seahorse analysis to measure oxygen consumption rate in iPSC derived precursors on day 20 of differentiation and brown adipocytes after 40 days of replating in response to 1.5 μM oligomycin, 10 μM forskolin or vehicle control DMSO and 1 μM Rotenone and Antimycin (Rot/AA), respectively. Adipocytes or precursor cells were in XFe96 cell culture plates one week prior to the assay. […]
Agilent Seahorse XFe96 Analyzer was used to measure oxygen consumption in live iPSC-BAs and precursor cells following manufacturer's instructions. […] Basal respiration was measured 3 times in the assay medium. […] Cells were then treated with 10 μM Forskolin (Sigma-Aldrich, F6886) or DMSO (Sigma-Aldrich, D2650) and oxygen consumption rate (OCR) was measured for 70 minutes (12 measurements). […] Cells were automatically segmented using custom code in Fiji and number of DAPI and mCherry positive cells were quantified. […]
The process of thermogenesis is driven by the flow of protons through UCP1 in the mitochondrial inner membrane. To examine whether forskolin-induced thermogenesis in iPSC-BAs is coupled to proton leak in mitochondria, we measured oxygen consumption rate (OCR) with a Seahorse metabolic flux analyzer in 40 day-old replated cultures ([…]). […]

Where [1] appears, read: 1 μM Rotenone and Antimycin (Rot/AA), last step, electron transport chain block.

Antimycin: under setting [1], the “oxygen consumption rate (OCR)” value was “drop of OCR”.

For the compound `C=C(C)[C@H]1Cc2c(ccc3c2O[C@@H]2COc4cc(OC)c(OC)cc4[C@@H]2C3=O)O1` [Rotenone], under setting [1], the “oxygen consumption rate (OCR)” value is given as “drop of OCR”. Regarding `CC[C@H]1/C=C/C=C/C[C@@H](C)[C@H](O)[C@@](C)(O)C(=O)[C@@H](C)[C@H](O)[C@@H](C)C(=O)[C@@H](C)[C@H](O)[C@@H](C)/C=C/C(=O)O[C@@H]2[C@H](C)[C@H](CC1)O[C@]1(CC[C@H](C)[C@H](C[C@@H](C)O)O1)[C@H]2C` [Oligomycin], the “oxygen consumption rate (OCR)” value (1.5 μM Oligomycin alone, versus basal respiration) was “the OCR in cells decreased”.
